Target: T1, human GPR139 (Homo sapiens, UniProt Q6DWJ6)
T1 construct: expressed in transfected cells; host or cells: CHO-TREx (Life Technologies) cells, expression induced with doxycycline
T1 sequence (Q6DWJ6 1-353): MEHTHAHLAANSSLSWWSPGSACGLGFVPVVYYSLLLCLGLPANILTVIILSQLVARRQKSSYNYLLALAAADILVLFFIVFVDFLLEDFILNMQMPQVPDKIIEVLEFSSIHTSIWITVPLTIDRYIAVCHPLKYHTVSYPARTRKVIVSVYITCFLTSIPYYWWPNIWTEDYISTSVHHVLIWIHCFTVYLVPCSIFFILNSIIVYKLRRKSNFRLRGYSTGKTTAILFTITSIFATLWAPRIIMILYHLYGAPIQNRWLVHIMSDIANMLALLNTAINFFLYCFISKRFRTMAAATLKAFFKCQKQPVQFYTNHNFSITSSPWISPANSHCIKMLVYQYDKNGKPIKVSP
Experiment: Inhibition rate of the amount of IP1 in GPR139-expressed CHO cells (inverse agonist assay, Test Example 2)
Assay type: cell-based
Conditions: CHO, relative value, inhibition rate of Example Compound 2 in Test Example 1 defined as 100%
Procedure, shortened: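 IP1 accumulation read by IP-One HTRF after 40 min compound exposure at 37° C in stimulation buffer, 2000 cells/well, GPR139 expression induced the day before with doxycycline. Results given as relative inhibition rate, normalised to a reference compound set at […].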

Row | SMILES | inhibition at 30 µM [%]
1 | CCn1cc(Cn2ccn(-c3cc(OCC4CC(F)(F)C4)cc(C(F)F)c3Cl)c2=O)cn1 [Example 69, 1-{2-chloro-5-[(3,3-difluorocyclobutyl)methoxy]-3-(difluoromethyl)phenyl}-3-[(1-ethyl-1H-pyrazol-4-yl)methyl]-1,3-dihydro-2H-imidazol-2-one] | 95
2 | CCn1cc(Cn2c(C)c(C)n(-c3cc(N4CCOC(F)(F)C4)cc(C(F)(F)F)c3F)c2=O)cn1 [Example 70, 1-[5-(2,2-difluoromorpholin-4-yl)-2-fluoro-3-(trifluoromethyl)phenyl]-3-[(1-ethyl-1H-pyrazol-4-yl)methyl]-4,5-dimethyl-1,3-dihydro-2H-imidazol-2-one] | 100
3 | CCn1cc(Cn2c(C)c(C)n(-c3cc(OCC(F)(F)F)cc(N(C)C4CCOCC4)c3)c2=O)cn1 [Example 73, 1-[(1-ethyl-1H-pyrazol-4-yl)methyl]-4,5-dimethyl-3-{3-[methyl(oxan-4-yl)amino]-5-(2,2,2-trifluoroethoxy)phenyl}-1,3-dihydro-2H-imidazol-2-one] | 99
4 | C=Cc1cc(N2CCO[C@H](C)C2)cc(-n2ccn(Cc3cnn(CC)c3)c2=O)c1F [Example 74, 1-{3-ethenyl-2-fluoro-5-[(2R)-2-methylmorpholin-4-yl]phenyl}-3-[(1-ethyl-1H-pyrazol-4-yl)methyl]-1,3-dihydro-2H-imidazol-2-one] | 98
5 | CC(C)n1cc(Cn2ccn(-c3nc(N4CCO[C@H](C)C4)cc(C(F)(F)F)c3F)c2=O)cn1 [Example 75, 1-{3-fluoro-6-[(2R)-2-methylmorpholin-4-yl]-4-(trifluoromethyl)pyridin-2-yl}-3-{[1-(propan-2-yl)-1H-pyrazol-4-yl]methyl}-1,3-dihydro-2H-imidazol-2-one] | 99
6 | Cc1c(C)n(-c2cc(C(F)F)cc(N(C)C3CCOCC3)c2)c(=O)n1Cc1cnn(C(C)C)c1 [Example 76, 1-{3-(difluoromethyl)-5-[methyl(oxan-4-yl)amino]phenyl}-4,5-dimethyl-3-{[1-(propan-2-yl)-1H-pyrazol-4-yl]methyl}-1,3-dihydro-2H-imidazol-2-one] | 97
7 | CCn1cc(Cn2cc(C)n(-c3cc(C(F)(F)F)nn3CCC3CCC3)c2=O)cn1 [Example 77, 3-[1-(2-cyclobutylethyl)-3-(trifluoromethyl)-1H-pyrazol-5-yl]-1-[(1-ethyl-1H-pyrazol-4-yl)methyl]-4-methyl-1,3-dihydro-2H-imidazol-2-one] | 100
8 | Cc1cn(-c2cc(N3CCOC(C)(C)C3)cc(C(F)F)c2F)c(=O)n1Cc1cnn(C(C)C)c1 [Example 79, 1-[3-(difluoromethyl)-5-(2,2-dimethylmorpholin-4-yl)-2-fluorophenyl]-4-methyl-3-{[1-(propan-2-yl)-1H-pyrazol-4-yl]methyl}-1,3-dihydro-2H-imidazol-2-one] | 98
9 | CCn1cc(Cn2c(C)cn(-c3nc(N(C)C4CCOCC4)cc(C(F)(F)F)c3Cl)c2=O)cn1 [Example 83, 1-{3-chloro-6-[methyl(oxan-4-yl)amino]-4-(trifluoromethyl)pyridin-2-yl}-3-[(1-ethyl-1H-pyrazol-4-yl)methyl]-4-methyl-1,3-dihydro-2H-imidazol-2-one] | 99
10 | Cc1cn(-c2nc(N3CCO[C@H](C)C3)cc(C(F)(F)F)c2Cl)c(=O)n1Cc1cnn(C(C)C)c1 [Example 85, 1-{3-chloro-6-[(2R)-2-methylmorpholin-4-yl]-4-(trifluoromethyl)pyridin-2-yl}-4-methyl-3-{[1-(propan-2-yl)-1H-pyrazol-4-yl]methyl}-1,3-dihydro-2H-imidazol-2-one] | 97
11 | CCn1cc(Cn2cc(C)n(-c3cc(C(F)(F)F)cc(N(C)C4CCOCC4)n3)c2=O)cn1 [Example 86, 1-[(1-ethyl-1H-pyrazol-4-yl)methyl]-4-methyl-3-{6-[methyl(oxan-4-yl)amino]-4-(trifluoromethyl)pyridin-2-yl}-1,3-dihydro-2H-imidazol-2-one] | 101
12 | Cc1cc(N2CCO[C@H](C)C2)cc(-n2cc(C)n(Cc3cnn(C(C)C)c3)c2=O)c1F [Example 87, 1-{2-fluoro-3-methyl-5-[(2R)-2-methylmorpholin-4-yl]phenyl}-4-methyl-3-{[1-(propan-2-yl)-1H-pyrazol-4-yl]methyl}-1,3-dihydro-2H-imidazol-2-one] | 98
13 | CCn1cc(Cn2cc(C)n(-c3cc(OCC(F)(F)F)cc(N(C)C4CCOCC4)c3)c2=O)cn1 [Example 88, 1-[(1-ethyl-1H-pyrazol-4-yl)methyl]-4-methyl-3-{3-[methyl(oxan-4-yl)amino]-5-(2,2,2-trifluoroethoxy)phenyl}-1,3-dihydro-2H-imidazol-2-one] | 99

More lines, now with the values ahead:

Row | inhibition at 30 µM [%] | SMILES
14 | 98 | CCn1cc(Cn2cc(C)n(-c3cc(OCC(F)F)cc(N4CCO[C@H](C)C4)c3)c2=O)cn1 [Example 71, 3-{3-(2,2-difluoroethoxy)-5-[(2R)-2-methylmorpholin-4-yl]phenyl}-1-[(1-ethyl-1H-pyrazol-4-yl)methyl]-4-methyl-1,3-dihydro-2H-imidazol-2-one]
15 | 99 | CCn1cc(Cn2cc(C)n(-c3cc(OCC(F)(F)F)cc(N4CCO[C@H](C)C4)c3)c2=O)cn1 [Example 72, 1-[(1-ethyl-1H-pyrazol-4-yl)methyl]-4-methyl-3-{3-[(2R)-2-methylmorpholin-4-yl]-5-(2,2,2-trifluoroethoxy)phenyl}-1,3-dihydro-2H-imidazol-2-one]
16 | 99 | CCn1cc(Cn2ccn(-c3cc(N4CCO[C@H](C)C4)cc(C4CC4(F)F)c3F)c2=O)cn1 (stereo partly drawn) [Example 78, 1-{3-(2,2-difluorocyclopropyl)-2-fluoro-5-[(2R)-2-methylmorpholin-4-yl]phenyl}-3-[(1-ethyl-1H-pyrazol-4-yl)methyl]-1,3-dihydro-2H-imidazol-2-one]
17 | 99 | CCc1cc(N2CCO[C@H](C)C2)cc(-n2ccn(Cc3cnn(CC)c3)c2=O)c1F [Example 80, 1-{3-ethyl-2-fluoro-5-[(2R)-2-methylmorpholin-4-yl]phenyl}-3-[(1-ethyl-1H-pyrazol-4-yl)methyl]-1,3-dihydro-2H-imidazol-2-one]
18 | 98 | CCc1cc(N2CCO[C@H](C)C2)cc(-n2cc(C)n(Cc3cnn(CC)c3)c2=O)c1F [Example 81, 1-{3-ethyl-2-fluoro-5-[(2R)-2-methylmorpholin-4-yl]phenyl}-3-[(1-ethyl-1H-pyrazol-4-yl)methyl]-4-methyl-1,3-dihydro-2H-imidazol-2-one]
19 | 100 | CCn1cc(Cn2cc(C)n(-c3cc(N4CCO[C@H](C)C4)cc(C(F)(F)F)c3Cl)c2=O)cn1 [Example 82, 3-{2-chloro-5-[(2R)-2-methylmorpholin-4-yl]-3-(trifluoromethyl)phenyl}-1-[(1-ethyl-1H-pyrazol-4-yl)methyl]-4-methyl-1,3-dihydro-2H-imidazol-2-one]
20 | 99 | CCn1cc(Cn2c(C)cn(-c3nc(N4CCO[C@H](C)C4)cc(C(F)(F)F)c3Cl)c2=O)cn1 [Example 84, 1-{3-chloro-6-[(2R)-2-methylmorpholin-4-yl]-4-(trifluoromethyl)pyridin-2-yl}-3-[(1-ethyl-1H-pyrazol-4-yl)methyl]-4-methyl-1,3-dihydro-2H-imidazol-2-one]

— US12630534B2 (TAKEDA PHARMACEUTICAL COMPANY LIMITED, priority 2020, dated 2026)
